What was measured:
Sus scrofa [1] = species on record: Sus scrofa; assay: Inhibition of pig aortic GlcNAc-1P-transferase-mediated […] formation at 0.5 to 1.5 ug/ml
Sus scrofa [2] = species on record: Sus scrofa; assay: Inhibition of pig aortic GlcNAc-1P-transferase-mediated […] formation at 50 to 100 ug/ml

Row | SMILES | inhibition (Sus scrofa [1]) | inhibition (Sus scrofa [2])
1 | CC(=O)N[C@H]1[C@@H](O[C@@H]2O[C@H](C[C@H](O)[C@H]3O[C@@H](n4ccc(=O)[nH]c4=O)[C@H](O)[C@@H]3O)[C@H](O)[C@H](O)[C@H]2NC(=O)/C=C/CCCCCCCCC(C)C)O[C@H](CO)[C@@H](O)[C@@H]1O | 50% | –
2 | CCC(C)CCCCCCCC/C=C/C(=O)N[C@H]1[C@H](O[C@H]2O[C@H](CO)[C@@H](O)[C@H](O)[C@H]2NC(C)=O)O[C@H](C[C@H](O)[C@H]2O[C@@H](N3CCC(=O)NC3=O)[C@H](O)[C@@H]2O)[C@H](O)[C@@H]1O (stereo not given in full) | – | 50%
3 | CC(=O)N[C@H]1[C@@H](O[C@@H]2O[C@H](C[C@H](O)[C@H]3O[C@@H](N4CCC(=O)NC4=O)[C@H](O)[C@@H]3O)[C@H](O)[C@H](O)[C@H]2NC(=O)/C=C/CCCCCCC(C)C)O[C@H](CO)[C@@H](O)[C@@H]1O | – | 50%
4 | CC(=O)N[C@H]1[C@@H](O[C@@H]2O[C@H](C[C@H](O)[C@H]3O[C@@H](N4CCC(=O)NC4=O)[C@H](O)[C@@H]3O)[C@H](O)[C@H](O)[C@H]2NC(=O)/C=C/CCCCCCCCC(C)C)O[C@H](CO)[C@@H](O)[C@@H]1O | – | 50%
5 | CCC(C)CCCCCC/C=C/C(=O)N[C@H]1[C@H](O[C@H]2O[C@H](CO)[C@@H](O)[C@H](O)[C@H]2NC(C)=O)O[C@H](C[C@H](O)[C@H]2O[C@@H](N3CCC(=O)NC3=O)[C@H](O)[C@@H]2O)[C@H](O)[C@@H]1O (stereo not given in full) | – | 50%

Next, values leading:

Row | inhibition (Sus scrofa [1]) | inhibition (Sus scrofa [2]) | SMILES
6 | 50% | – | CC(=O)N[C@H]1[C@@H](O[C@@H]2O[C@H](C[C@H](O)[C@H]3O[C@@H](n4ccc(=O)[nH]c4=O)[C@H](O)[C@@H]3O)[C@H](O)[C@H](O)[C@H]2NC(=O)/C=C/CCCCCCC(C)C)O[C@H](CO)[C@@H](O)[C@@H]1O
7 | 50% | – | CCC(C)CCCCCCCC/C=C/C(=O)N[C@H]1[C@H](O[C@H]2O[C@H](CO)[C@@H](O)[C@H](O)[C@H]2NC(C)=O)O[C@H](C[C@H](O)[C@H]2O[C@@H](n3ccc(=O)[nH]c3=O)[C@H](O)[C@@H]2O)[C@H](O)[C@@H]1O (stereo not given in full)
8 | 50% | – | CC(=O)N[C@H]1[C@@H](O[C@@H]2O[C@H](C[C@H](O)[C@H]3O[C@@H](n4ccc(=O)[nH]c4=O)[C@H](O)[C@@H]3O)[C@H](O)[C@H](O)[C@H]2NC(=O)/C=C/CCCCCCCC(C)C)O[C@H](CO)[C@@H](O)[C@@H]1O
9 | 50% | – | CCC(C)CCCCCC/C=C/C(=O)N[C@H]1[C@H](O[C@H]2O[C@H](CO)[C@@H](O)[C@H](O)[C@H]2NC(C)=O)O[C@H](C[C@H](O)[C@H]2O[C@@H](n3ccc(=O)[nH]c3=O)[C@H](O)[C@@H]2O)[C@H](O)[C@@H]1O (stereo not given in full)
10 | – | 50% | CC(=O)N[C@H]1[C@@H](O[C@@H]2O[C@H](C[C@H](O)[C@H]3O[C@@H](N4CCC(=O)NC4=O)[C@H](O)[C@@H]3O)[C@H](O)[C@H](O)[C@H]2NC(=O)/C=C/CCCCCCCC(C)C)O[C@H](CO)[C@@H](O)[C@@H]1O
